# Experimental data reported in US5126432A, “Calcium channel modulating substances” (Miles Inc., priority 1988, dated 1992).
# “Also recorded” adds a separate entry of the source.
# How the values were obtained:
# [1] = dialysis: binding of free [3H]DHP ligand to the fractions; details: 5 mg inside bag, 0.2 nM [3H]DHP, 25° C. overnight
# Protocol: In order to further determine the specificity of action of a particular fraction (i.e., to insure that the fraction was acting competitively on the dihydropyridine receptor and not simply depleting the free ligand), a determination of the amount of free ligand was done by dialysis as follows.
# A […] segment of Spectra-por 7 dialysis tubing (0.46 mL/cm) was washed thoroughly with water to remove EDTA and other chemicals. The molecular weight cut-off of this tubing was 1,000. Dialysis was performed in 16 mm glass tubes placed in a shaker incubator at 25° C. overnight. The volume inside the bag (made from closing the tubing by tying it) was 2.5 mL; the outside volume was 10 mL of 50 mM HEPES buffer, pH 7.0. Experiments were done with the [^3 H]DHP present both inside and outside the bag. The concentration of the [^3 H]DHP ligand used was always 0.2 nM. A control using 5 mg bovine serum albumin (BSA) inside the bag was carried out. […] The brain fractions tested were also 5 mg by weight. Dialysis was carried out in the presence of the cocktail of protease inhibitors described supra present both inside and outside the bag. The experiment was terminated by taking representative aliquots from inside and outside the bag (in triplicate). The cpm were then adjusted for total volume.
# [2] = test system: dihydropyridine receptors; experiment: stability of inhibitory activity to boiling and ashing; format: physicochemical; details: 270° C. for 3 hours
# Text: This observed differential activity was further evidence of a specific interaction with the dihydropyridine binding site rather than the non-specific reduction of free ligand concentration.
# When this fraction was chromatographed on either a Waters Protein Pak-125 or a TSK-250 gel filtration column using 40% acetonitrile in 0.1% TFA as the mobile phase, the activity (as determined in ligand binding assays described in Example 1c) eluted in a volume less than […] fragment (amino acids 61-63) having a molecular weight of 443.
# calcium channel = details: known from the art; cited from earlier work
compound,measurement,setting,value
"bovine serum albumin: control in dialysis, 5 mg inside the bag",binding of [3H]DHP ligand in dialysis,[1],bind [^3 H]DHP ligand hydrophobically
[Cl-].[Na+] [NaCl],activity after ashing,[2],maintained activity upon ashing
COC(=O)C1=C(C)NC(C)=C([N+](=O)[O-])C1c1ccccc1C(F)(F)F (stereo not drawn) [Bay K8644],effect on calcium channel current,calcium channel,increases calcium channel current; also recorded: can produce inhibition depending on the precise membrane potential and channel state
